# Source: patent US5700640A, “Inducers of gamma globin gene expression and screening assays therefor” (priority 1994, dated 1997)
# What was measured:
# in vitro = details: human, k562 cells
# Experimental: (§1) To normalize luciferase units to the number of viable cells, parallel cell viability assays were performed using 3-(4,5-dimethylthiazol-2-yl)-2,5-diphenyltetrazolium bromide (MTT) (Vistica, D. T. et al. (1991) Cancer Res. 51:2515-2520). Transfected K562 cells were plated in 96 well dishes at a density of 2×10^4 and 2×10^3 cells per 100 μl per well. 24 hours later, the cells were treated with test compounds (at a final concentration of 5 mM). At 24, 50, 74 or 122 hours after treatment, 50 μl of 3 mg/ml MTT in PBS was added to each well. The 96 well plate was then incubated at 37° C. for 4 to 5 hours. The formazan derivatives formed from tetrazolium by viable cells were solubilized by the addition of 50 μl/well 25% SDS, pH 3, overnight at 37° C. The plates were than read at a wavelength of 550 nm.
# K562 cells = test: in vitro
# Experimental: as §1
# [1] = tested on: gamma globin-luciferase reporter constructs in K562 cells; test: BA inducibility of different gamma globin-reporter gene constructs in transiently transfected K562 cells; format: cell-based, human
# Description: The entire human globin gene locus, spanning approximately 150 kilobases, is shown schematically in FIG. 1. Depicted are the different globin structural genes and cis-active regulatory elements (e.g., promoters and enhancers). To construct gamma globin reporter gene plasmids, nucleic acid fragments comprising nucleotide sequences normally flanking (i.e., at either the 5' or 3' end of) the gamma globin gene were obtained and subcloned into a plasmid encoding a reporter gene. The human gamma globin 5' promoter fragment consisted of nucleotides -1200 to +30, relative to the start site of transcription (nucleotide numbers 38205 to 39435 of the human gamma globin gene in the GENEMBL database, accession number J00179). The promoter fragment was obtained from human genomic DNA by polymerase chain reaction (PCR) amplification using oligonucleotide primers of the sequences: […]
# These constructs are illustrated schematically in FIG. 2.
# In a first series of experiments, K562 cells transiently transfected with the different gamma globin-reporter genes described in Example 1 were treated with butyric acid (BA). After treatment, the level of reporter gene activity (i.e., luciferase activity) in the treated cells was compared to determine the BA-inducibility of the different reporter gene constructs. The results are shown graphically in FIG. 2, which illustrates the fold induction of luciferase activity by BA relative to untreated cells. […] All other constructs tested (including gammaSV40, beta3'PE, HS2/3gamma3'PE and gamma) were at least 2 fold less responsive to BA treatment.
# To test whether the increased sensitivity of the gamma globin promoter to BA was due to a specific property of the globin 3' Proximal Enhancer or if this was a property of transcriptional enhancers in general, two copies of the 72 bp repeat of the SV40 enhancer (isolated by PCR from the simian virus 40 genome) were substituted for the 3' Proximal Enhancer in the context of the gamma globin promoter (construct gammaSV40). […] This may be due to the unnatural proximity of these enhancer sequences to the gamma globin promoter in this construct. Normally, these sequence reside over 30 kB upstream of the promoter and one function of BA in vivo may be to promote interaction between the chromosomal LCR sequences and the gamma globin promoter. Artificially positioning the LCR components near the gamma globin promoter may have in fact complemented the effect of BA. Thus, empirically, it appears that maintaining the cis-active elements of the gamma globin locus in their natural context is important for developing the most sensitive reporter gene assay system for detecting gone induction by short chain fatty acids such as BA.
# GATA-1 mRNA = test: Northern hybridization of GATA-1 mRNA in treated K562 cells; format: cell-based, human
# Experimental: (§2) Total RNA was prepared by the method of McDonald as described in Sambrook et al., (1989) Molecular Cloning: A Laboratory Manual, 2nd Edition, Cold Spring Harbor Laboratory Press. 10 μg total cellular RNA was electrophoresed through agarose gels containing 3.3% formaldehyde. The electrophoresed RNA was then transferred to nitrocellulose filters by standard methods. Each sample was hybridized to specific probes for gamma globin mRNA, mRNA encoding the erythroid specific transcription factor GATA-1 and 28S ribosomal RNA (which was used for standardization). The gamma globin and GATA-1 probes were cDNA probes, which were labeled with ^32 p by random priming reactions (Promega Biotech Inc.). The 28S ribosomal RNA probe was an oligonucleotide having the sequence 5' […] 3' (SEQ ID NO: 3), which was labeled by 5' end labeling using T4 polynucleotide kinase (New England Biolabs). Nucleotide probes were hybridized to the RNA nitrocellulose filters according to standard techniques. After hybridization, radioactive signals on the nitrocellulose filters were directly quantified using a BioRad GS-250 Molecular Imager. mRNA hybridization intensities were normalized to the amount of 28S ribosomal RNA present for each sample.
# [2] = tested on: gamma globin gene expression; details: cited from earlier work
# [3] = tested on: erythroid differentiation of cultured cells; details: Leder and Leder 1975; cited from earlier work
# gamma globin mRNA = test: Northern hybridization of gamma globin mRNA in treated K562 cells; format: cell-based, human
# Experimental: as §2
# [4] = tested on: gamma globin promoter deletion-luciferase constructs in K562 cells; test: BA inducibility of gamma globin promoter deletion constructs; format: cell-based, human; details: 5 mM BA, 24 hours
# Description: Luciferase reporter gene constructs containing serial deletions in the 5' end of the gamma globin promoter were made by cloning truncated promoter DNA fragments upstream (i.e., 5') of the luciferase gene in pGL2. The gamma globin 3' Proximal Enhancer element (3'PE) was cloned downstream (i.e., 3') of the luciferase reporter gene in these constructs. Truncated gamma globin promoter DNA fragments were generated by PCR using as the upstream primer oligonucleotides having the sequences:
# To create a construct with 5' terminus at position -140, the -577 reporter gene construct was digested with NcoI and KpnI, the fragment containing the deleted promoter and reporter gene (i.e., the large restriction fragment) was treated with T4 DNA polymerase to fill-in the restriction sites and the fragment was treated with T4 DNA ligase to religate the construct.
# To determine the inducibility of each deletion construct by butyric acid, the constructs were introduced into K562 cells by electropotation as described above. Forty-eight hours after transfection, the cells were treated with 5 mMBA. Luciferase activity was measured 24 hours later. The inducibility of the deletion constructs is illustrated in FIGS. 16 and 17.
# [5] = tested on: neoplastic and non-neoplastic cells; details: Newmark et al. 1994; cited from earlier work
# [6] = normalized to 28S ribosomal RNA, K562 cells, 5 mM, 96 hours
compound,measurement,setting,value
"CCCC(=O)O [BA, butyric acid]","cytotoxicity at 72 h, 5000 µM",in vitro,~100%
same,"viability at 122 h, 5000 µM",in vitro,< 30%
same,effect on cell viability within 24 hours (FIG. 7),K562 cells,negative effect on cell viability within 24 hours after treatment
same,effect of LCR sequences on BA sensitivity of gamma3'PE construct,[1]; HS2/3gamma3'PE vs gamma3'PE,reduce the sensitivity of the gamma3'PE construct to BA
same,BA induction of beta3'PE construct,[1]; beta globin promoter with 3'Proximal Enhancer,not inducible
same,BA responsiveness of gamma3'PE construct,"[1]; gamma3'PE, fold induction relative to untreated cells",most responsive to BA
same,BA induction of gamma construct,[1]; gamma globin promoter without 3' Proximal Enhancer,"inducible, albeit to a lesser extent than when in the context of the 3' Proximal Enhancer"
same,SV40 enhancer effect on BA responsiveness of gamma globin promoter,[1]; gammaSV40,not effective in augmenting the responsiveness of the gamma globin promoter to BA
same,fold lower BA responsiveness of other constructs than gamma3'PE,"[1]; gammaSV40, beta3'PE, HS2/3gamma3'PE and gamma, transient transfection",at least 2 fold
same,BA induction of promoterless constructs,[1]; luciferase gene only or fused to 3'Proximal Enhancer,not induced by BA
same,fold induction at 5000 µM,"GATA-1 mRNA; Homo sapiens, K562, 96 h, read-out: Fold Induction, GATA-1 RNA",1
same,"Raw Value, GATA-1 RNA","GATA-1 mRNA; K562 cells, 5 mM, 96 hours",2.23 × 10^5
same,"Normalized Value, GATA-1 RNA",GATA-1 mRNA; [6],5.8 × 10^4
same,effect on gamma globin gene expression,[2]; in vitro and in vivo,increase gamma globin gene expression in vitro and in vivo
same,effect on fetal to adult hemoglobin switch,[2]; in vivo,delay the fetal to adult hemoglobin switch in vivo
same,induction of erythroid differentiation,[3],potent inducer of erythroid differentiation of cultured cells
same,fold induction at 5000 µM,"gamma globin mRNA; Homo sapiens, K562, 96 h, read-out: Fold Induction, gamma globin RNA",1.3
same,"Raw Value, gamma globin RNA","gamma globin mRNA; K562 cells, 5 mM, 96 hours",3.58 × 10^6
same,"Normalized Value, gamma globin RNA",gamma globin mRNA; [6],9.4 × 10^5
same,BA inducibility on promoter deletion to -108,[4],markedly reduced the BA inducibility of the construct
same,BA responsiveness on promoter deletion from -1260 to -140,[4],did not significantly alter the responsiveness of the reporter construct to BA
same,induction of differentiation,[5],induce differentiation of neoplastic and non-neoplastic cells
